Assay results published in PMC11864979, “First-in-class ultralong-target-residence-time p38α inhibitors as a mitosis-targeted therapy for colorectal cancer” (Nature Cancer, 2025).
Where two headings read alike, the source gives them in different places.

Tests used:
Experiment in all cases: selectivity profiling in a panel of 340 wild-type kinases (Reaction Biology Europe)
Assay type in all cases: binding
340 wild-type kinases [1] = target: T1, 340 wild-type kinases (Homo sapiens, UniProt O43781)
T1 construct: purchased Reaction Biology Europe
T1 sequence (O43781 1-588): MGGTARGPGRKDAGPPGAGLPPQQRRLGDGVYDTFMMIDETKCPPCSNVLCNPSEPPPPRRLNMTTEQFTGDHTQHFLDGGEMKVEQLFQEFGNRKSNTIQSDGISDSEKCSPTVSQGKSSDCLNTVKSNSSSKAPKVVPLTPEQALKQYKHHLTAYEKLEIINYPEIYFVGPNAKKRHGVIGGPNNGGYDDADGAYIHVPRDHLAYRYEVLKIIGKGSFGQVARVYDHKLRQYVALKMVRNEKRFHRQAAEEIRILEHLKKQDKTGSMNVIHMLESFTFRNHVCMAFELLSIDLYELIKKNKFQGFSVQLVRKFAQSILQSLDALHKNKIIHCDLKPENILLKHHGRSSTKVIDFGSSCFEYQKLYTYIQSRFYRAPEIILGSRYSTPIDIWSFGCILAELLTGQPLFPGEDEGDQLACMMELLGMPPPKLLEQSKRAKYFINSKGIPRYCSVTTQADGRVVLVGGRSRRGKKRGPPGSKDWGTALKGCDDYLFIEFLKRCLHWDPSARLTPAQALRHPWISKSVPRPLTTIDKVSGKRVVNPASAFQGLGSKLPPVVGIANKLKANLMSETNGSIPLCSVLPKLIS

340 wild-type kinases [2] = target: T2, 340 wild-type kinases (Homo sapiens, UniProt O75116)
T2 construct: purchased Reaction Biology Europe
T2 sequence (O75116 whole entry): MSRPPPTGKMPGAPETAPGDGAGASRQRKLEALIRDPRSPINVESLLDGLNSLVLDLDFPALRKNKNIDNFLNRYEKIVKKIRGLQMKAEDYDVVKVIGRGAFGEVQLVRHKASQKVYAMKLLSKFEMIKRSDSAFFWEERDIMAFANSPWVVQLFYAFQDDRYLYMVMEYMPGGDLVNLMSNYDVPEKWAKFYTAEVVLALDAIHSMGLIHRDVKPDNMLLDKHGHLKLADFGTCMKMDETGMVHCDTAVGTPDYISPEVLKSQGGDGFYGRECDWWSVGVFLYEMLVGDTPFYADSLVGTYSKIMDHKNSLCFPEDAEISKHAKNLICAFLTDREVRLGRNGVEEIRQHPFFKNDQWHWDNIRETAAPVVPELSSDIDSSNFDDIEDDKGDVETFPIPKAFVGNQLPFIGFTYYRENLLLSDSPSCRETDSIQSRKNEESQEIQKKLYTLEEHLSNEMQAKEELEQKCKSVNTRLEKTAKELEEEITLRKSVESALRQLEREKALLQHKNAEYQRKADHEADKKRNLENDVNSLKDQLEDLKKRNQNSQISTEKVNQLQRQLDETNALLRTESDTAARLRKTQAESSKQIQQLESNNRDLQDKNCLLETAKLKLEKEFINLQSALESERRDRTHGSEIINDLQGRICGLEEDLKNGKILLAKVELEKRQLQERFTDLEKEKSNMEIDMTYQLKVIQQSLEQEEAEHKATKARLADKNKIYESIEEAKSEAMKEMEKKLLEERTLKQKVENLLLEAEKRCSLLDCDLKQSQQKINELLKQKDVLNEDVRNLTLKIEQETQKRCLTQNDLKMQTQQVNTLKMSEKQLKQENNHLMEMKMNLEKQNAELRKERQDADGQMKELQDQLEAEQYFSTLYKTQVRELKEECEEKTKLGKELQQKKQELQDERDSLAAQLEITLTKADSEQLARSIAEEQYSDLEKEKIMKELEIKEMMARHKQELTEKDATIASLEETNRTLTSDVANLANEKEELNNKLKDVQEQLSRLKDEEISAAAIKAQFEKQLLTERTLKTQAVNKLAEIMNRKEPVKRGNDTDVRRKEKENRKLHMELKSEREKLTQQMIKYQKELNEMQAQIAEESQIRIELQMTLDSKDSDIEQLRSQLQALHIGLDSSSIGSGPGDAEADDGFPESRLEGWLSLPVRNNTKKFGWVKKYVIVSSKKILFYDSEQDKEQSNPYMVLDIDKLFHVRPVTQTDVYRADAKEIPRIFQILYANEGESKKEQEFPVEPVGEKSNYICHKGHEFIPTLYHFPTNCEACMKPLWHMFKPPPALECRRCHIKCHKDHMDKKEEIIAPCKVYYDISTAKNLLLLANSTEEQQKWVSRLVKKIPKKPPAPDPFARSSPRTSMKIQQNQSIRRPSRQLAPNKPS

340 wild-type kinases [3] = target: T3, 340 wild-type kinases (Homo sapiens, UniProt O96017)
T3 construct: purchased Reaction Biology Europe
T3 sequence (O96017 whole entry): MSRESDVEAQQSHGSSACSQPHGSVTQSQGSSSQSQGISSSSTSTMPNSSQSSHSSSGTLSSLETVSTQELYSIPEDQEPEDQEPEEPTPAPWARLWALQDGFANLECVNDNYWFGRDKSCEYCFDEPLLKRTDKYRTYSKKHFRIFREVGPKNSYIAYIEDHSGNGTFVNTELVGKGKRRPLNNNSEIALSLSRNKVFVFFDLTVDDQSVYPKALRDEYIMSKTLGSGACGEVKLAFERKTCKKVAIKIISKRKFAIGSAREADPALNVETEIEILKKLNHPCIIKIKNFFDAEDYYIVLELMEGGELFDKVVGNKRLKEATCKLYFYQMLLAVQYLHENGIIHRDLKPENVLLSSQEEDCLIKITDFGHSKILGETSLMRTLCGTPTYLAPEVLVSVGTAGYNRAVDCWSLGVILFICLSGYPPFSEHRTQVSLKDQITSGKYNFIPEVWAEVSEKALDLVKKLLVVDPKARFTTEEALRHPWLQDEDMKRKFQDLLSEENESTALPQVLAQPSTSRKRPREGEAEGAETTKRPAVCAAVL

340 wild-type kinases [4] = target: T4, 340 wild-type kinases (Homo sapiens, UniProt P54762)
T4 construct: purchased Reaction Biology Europe
T4 sequence (P54762 18-984): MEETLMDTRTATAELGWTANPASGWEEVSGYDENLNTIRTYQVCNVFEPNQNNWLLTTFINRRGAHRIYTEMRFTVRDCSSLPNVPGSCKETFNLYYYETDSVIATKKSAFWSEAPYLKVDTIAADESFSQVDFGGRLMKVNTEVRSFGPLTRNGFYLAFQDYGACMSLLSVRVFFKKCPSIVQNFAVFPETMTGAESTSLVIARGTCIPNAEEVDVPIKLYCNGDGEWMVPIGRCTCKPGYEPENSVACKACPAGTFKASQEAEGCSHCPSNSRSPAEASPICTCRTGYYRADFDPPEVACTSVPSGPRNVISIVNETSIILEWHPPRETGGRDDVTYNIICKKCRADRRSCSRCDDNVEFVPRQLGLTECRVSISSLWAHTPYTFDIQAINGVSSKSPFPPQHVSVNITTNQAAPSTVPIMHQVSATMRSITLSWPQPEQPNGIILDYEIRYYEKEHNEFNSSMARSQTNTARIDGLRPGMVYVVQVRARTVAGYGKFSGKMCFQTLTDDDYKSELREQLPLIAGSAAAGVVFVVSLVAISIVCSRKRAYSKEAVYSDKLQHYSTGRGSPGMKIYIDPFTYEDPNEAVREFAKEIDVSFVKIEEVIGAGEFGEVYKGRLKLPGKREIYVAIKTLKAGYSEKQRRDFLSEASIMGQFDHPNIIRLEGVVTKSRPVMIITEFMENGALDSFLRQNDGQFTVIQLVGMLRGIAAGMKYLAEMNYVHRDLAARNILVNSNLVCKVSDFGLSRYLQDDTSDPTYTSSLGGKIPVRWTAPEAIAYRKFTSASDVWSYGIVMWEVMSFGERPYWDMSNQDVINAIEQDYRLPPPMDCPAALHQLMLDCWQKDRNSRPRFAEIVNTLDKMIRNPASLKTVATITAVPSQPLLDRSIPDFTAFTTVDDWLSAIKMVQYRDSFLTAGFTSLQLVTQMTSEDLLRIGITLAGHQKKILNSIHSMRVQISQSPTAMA

SMILES: CNC(=O)c1ccc2c(c1)C(=O)c1ccc(Nc3ccc(F)c(NC(=O)C4CC4)c3)cc1CC2 [Compound 2015]
- remaining activity at 0.2 µM (340 wild-type kinases [1]; 0.2 µM 2015, read-out: DYRK3 residual activity): 104%
- remaining activity at 1 µM (340 wild-type kinases [1]; 1 µM 2015, read-out: DYRK3 residual activity): 107%
- remaining activity at 0.2 µM (340 wild-type kinases [1]; DYRK3, 0.2 µM, read-out: residual activity): 104%
- remaining activity at 1 µM (340 wild-type kinases [1]; DYRK3, 1 µM, read-out: residual activity): 107%
- remaining activity at 0.2 µM (340 wild-type kinases [2]; 0.2 µM 2015, read-out: ROCK2 residual activity): 89%
- remaining activity at 1 µM (340 wild-type kinases [2]; 1 µM 2015, read-out: ROCK2 residual activity): 86.3%
- remaining activity at 0.2 µM (340 wild-type kinases [2]; ROCK2, 0.2 µM, read-out: residual activity): 89%
- remaining activity at 1 µM (340 wild-type kinases [2]; ROCK2, 1 µM, read-out: residual activity): 86.3%
- remaining activity at 0.2 µM (340 wild-type kinases [3]; 0.2 µM 2015, read-out: CHK2 residual activity): 102%
- remaining activity at 1 µM (340 wild-type kinases [3]; 1 µM 2015, read-out: CHK2 residual activity): 94.9%
- remaining activity at 0.2 µM (340 wild-type kinases [3]; CHK2, 0.2 µM, read-out: residual activity): 102%
- remaining activity at 1 µM (340 wild-type kinases [3]; CHK2, 1 µM, read-out: residual activity): 94.9%
- remaining activity at 0.2 µM (340 wild-type kinases [4]; 0.2 µM 2015, read-out: EPHB1 residual activity): 118%
- remaining activity at 1 µM (340 wild-type kinases [4]; 1 µM 2015, read-out: EPHB1 residual activity): 103%
- remaining activity at 0.2 µM (340 wild-type kinases [4]; EPHB1, 0.2 µM, read-out: residual activity): 118%
- remaining activity at 1 µM (340 wild-type kinases [4]; EPHB1, 1 µM, read-out: residual activity): 103%
